Source: patent US20230203060A1 (GENFLEET THERAPEUTICS (SHANGHAI) INC., priority 2020, published 2023)
Counter-ions that a name gives are not always drawn. Like-named read-outs stand apart in the source and are kept apart here.

What was measured:
Assay type in all cases: cell-based, human
[1] = test system: A549 cells (KRAS G12S mutant); test: Cell proliferation inhibition experiment, 3D spheroid, CellTiter-Glo, A549; conditions: A549 (KRAS G12S mutant) 3D spheroid, 5 days with compound, CellTiter-Glo, read-out: A549 IC50
Outline: (§1)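 CellTiter-Glo luminescence after 5 days' compound treatment (3.16-fold series, 0.1% DMSO) of overnight-formed spheroids in 2% FBS medium: H358 seeded at 800 cells/well in RPMI-1640, A549 at 400 cells/well in F-12K. IC50 derived by four-parameter fit of inhibition normalized to DMSO control and blank.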

[2] = test system: KRAS G12C mutant NCI-H358 cells; test: Cell proliferation inhibition experiment, 3D spheroid, CellTiter-Glo, NCI-H358; conditions: read-out: H358 IC50
Outline: as §1

[3] = test system: KRAS G12C mutant MIA PaCa-2 cells; test: Cell proliferation inhibition experiment, 3D spheroid, CellTiter-Glo, MIA PaCa-2; conditions: read-out: MIA-PaCa2 IC50
Outline: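 Luminescent ATP read-out (CellTiter-Glo) after 5-day compound treatment of spheroids formed overnight from 200 MIA PaCa-2 cells/well; compounds in 3.16-fold series, 0.1% DMSO final. IC50 derived by four-parameter fit of percent inhibition, normalized to DMSO control and medium blank.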

[4] = Homo sapiens, NCI-H358, 120 h, NCI-H358 (KRAS G12C mutant) 3D spheroid, 5 days with compound, CellTiter-Glo
[5] = Homo sapiens, MIA PaCa-2, 120 h, 3D cell model in 384-well spheroid plate, 5 days, CellTiter-Glo
[6] = NCI-H358 (KRAS G12C mutant) 3D spheroid, 5 days with compound, CellTiter-Glo
[7] = 3D cell model in 384-well spheroid plate, 5 days, CellTiter-Glo

SMILES	IC50 ([1]; Homo sapiens, A549, 120 h) [nM]	IC50 [2, 4] [nM]	IC50 [3, 5] [nM]	IC50 [2, 6] [nM]	further results
C=CC(=O)N1CCN2C(=O)c3c(N4CC(=O)N(C)CC4C)nc(-c4c(O)cccc4F)c(Cl)c3OC[C@H]2C1 (single isomer, unassigned) [Z221-1]	> 30000	–	8.8	2.7	–
C=CC(=O)N1CCN2C(=O)c3c(N4CC(=O)N(C)CC4C)nc(-c4c(O)cccc4F)c(Cl)c3OC[C@H]2C1 (single isomer, unassigned) [Z221-2]	–	–	–	16.8	–
C=CC(=O)N1CCN2C(=O)c3c(N4CC(N(C)C5COC5)CC4(C)C)nc(-c4c(O)cccc4F)c(Cl)c3OC[C@H]2C1 (single isomer, unassigned) [Z331-1]	8330	–	1.1	0.5	–
C=CC(=O)N1CCN2C(=O)c3c(N4CC(N(C)C5COC5)CC4(C)C)nc(-c4c(O)cccc4F)c(Cl)c3OC[C@H]2C1 (single isomer, unassigned) [Z331-2]	–	–	–	1.1	IC50 [1]: 9320 nM; IC50 [3, 7]: 1.3 nM
C=CC(=O)N1CCN2C(=O)c3c(N4CCN(C)C[C@@H]4C)nc(-c4c(O)cccc4Cl)c(Cl)c3OC[C@H]2C1 (single isomer, unassigned) [Z455-1]	–	–	–	45.2	IC50 [1]: 4180 nM; IC50 [3, 7]: 86.9 nM
C=CC(=O)N1CCN2C(=O)c3c(N4CCN(C)C[C@@H]4C)nc(-c4c(O)cccc4Cl)c(Cl)c3OC[C@H]2C1 (single isomer, unassigned) [Z455-2]	–	–	–	3.7	IC50 [1]: > 10000 nM; IC50 [3, 7]: 9.2 nM
C=CC(=O)N1CCN2C(=O)c3c(N4CC(N5CCOCC5)CC4(C)C)nc(-c4ccccc4F)c(Cl)c3OC[C@H]2C1 (single isomer, unassigned) [Z468-2]	–	–	–	5	IC50 [1]: 4560 nM; IC50 [3, 7]: 12 nM
C=CC(=O)N1CCN2C(=O)c3c(N4C[C@H](N(C)C)CC4(C)C)nc(-c4ccccc4)c(Cl)c3OC[C@H]2C1 (single isomer, unassigned) [Z655-2]	–	–	–	18	IC50 [1]: 2750 nM; IC50 [3, 7]: 50.9 nM
C=CC(=O)N1CCN2C(=O)c3c(N4C[C@H](N(C)CCF)CC4(C)C)nc(-c4ccccc4F)c(Cl)c3OC[C@H]2C1 (single isomer, unassigned) [Z660-2]	–	–	–	10.8	IC50 [1]: 9080 nM; IC50 [3, 7]: 47 nM
C=CC(=O)N1CCN2C(=O)c3c(N4C[C@H](NC)CC4(C)C)nc(-c4ccccc4F)c(Cl)c3OC[C@H]2C1 (single isomer, unassigned) [Z661-2]	–	–	4	–	–
C=CC(=O)N1CCN2C(=O)c3c(N4CCN(C)C(C)(C)C4)nc(-c4ccccc4F)c(Cl)c3OC[C@H]2C1 [Z463, (R)-8-acryloyl-4-chloro-3-(2-fluorophenyl)-1-(3,3,4-trimethylpiperazin-1-yl)-6,6a,7,8,9,10-hexahydro-12H-pyrazino[2,1-c]pyrido[3,4-f][1,4]oxazepin-12-one, formate]	–	–	–	–	IC50 ([3]; Homo sapiens, MIA PaCa-2, 120 h): 59 nM; IC50 ([2]; Homo sapiens, NCI-H358, 120 h): 39 nM

Continued, in another order:

IC50 ([1]; Homo sapiens, A549, 120 h) [nM]	IC50 [2, 4] [nM]	IC50 [3, 5] [nM]	IC50 [2, 6] [nM]	SMILES	further results
> 1000	1	–	–	C=CC(=O)N1CCN2C(=O)c3c(N4C[C@@H](O)CC4(C)C)nc(-c4c(O)cccc4F)c(Cl)c3OC[C@H]2C1 (single isomer, unassigned) [Z81]	–
> 1000	11	–	–	C=CC(=O)N1CCN2C(=O)c3c(N4C[C@H](O)CC4(C)C)nc(-c4c(O)cccc4F)c(Cl)c3OC[C@H]2C1 (single isomer, unassigned) [Z82]	–
4680	31	143	–	C=CC(=O)N1CCN2C(=O)c3c(Nc4c(C)ccnc4C(C)C)nc(-c4c(O)cccc4F)c(Cl)c3OC[C@H]2C1 [Z5, (6aR)-8-acryloyl-4-chloro-3-(2-fluoro-6-hydroxyphenyl)-1-((2-isopropyl-4-methylpyridin-3-yl)amino)-6,6a,7,8,9,10-hexahydro-12H-pyrazino[2,1-c]pyrido[3,4-f][1,4]oxazepin-12-one]	–
> 30000	7	17	–	C=CC(=O)N1CCN2C(=O)c3c(N(C)c4c(C)ccnc4C(C)C)nc(-c4c(O)cccc4F)c(Cl)c3OC[C@H]2C1 [Z6, (6aR)-8-acryloyl-4-chloro-3-(2-fluoro-6-hydroxyphenyl)-1-((2-isopropyl-4-methylpyridin-3-yl)(methyl)amino)-6,6a,7,8,9,10-hexahydro-12H-pyrazino[2,1-c]pyrido[3,4-f][1,4]oxazepin-12-one]	–
> 30000	33	26	–	C=CC(=O)N1CCN2C(=O)c3c(OC4CCN(C)CC4)nc(-c4c(O)cccc4F)c(Cl)c3OC[C@H]2C1 [Z61, (6aR)-8-acryloyl-4-chloro-3-(2-fluoro-6-hydroxyphenyl)-1-((1-methylpiperidin-4-yl)oxy)-6,6a,7,8,9,10-hexahydro-12H-pyrazino[2,1-c]pyrido[3,4-f][1,4]oxazepin-12-one]	–
> 1000	14	23	–	C=CC(=O)N1CCN2C(=O)c3c(N4CCOC5(CC5)C4)nc(-c4c(O)cccc4F)c(Cl)c3OC[C@H]2C1 [Z63, (6aR)-8-acryloyl-4-chloro-1-(4-oxa-7-azaspiro[2.5]octan-7-yl)-3-(2-fluoro-6-hydroxyphenyl)-6,6a,7,8,9,10-hexahydro-12H-pyrazino[2,1-c]pyrido[3,4-f][1,4]oxazepin-12-one]	–
> 5000	12	18	–	C=CC(=O)N1CCN2C(=O)c3c(N4CC[C@@H]4C)nc(-c4c(O)cccc4F)c(Cl)c3OC[C@H]2C1 [Z68, (6aR)-8-acryloyl-1-((S)-2-methylazetidin-1-yl)-4-chloro-3-(2-fluoro-6-hydroxyphenyl)-6,6a,7,8,9,10-hexahydro-12H-pyrazino[2,1-c]pyrido[3,4-f][1,4]oxazepin-12-one]	–
> 5000	9	28	–	C=CC(=O)N1CCN2C(=O)c3c(NC(C)(C)C)nc(-c4c(O)cccc4F)c(Cl)c3OC[C@H]2C1 [Z69, (6aR)-8-acryloyl-1-(tert-butylamino)-4-chloro-3-(2-fluoro-6-hydroxyphenyl)-6,6a,7,8,9,10-hexahydro-12H-pyrazino[2,1-c]pyrido[3,4-f][1,4]oxazepin-12-one]	–
> 1000	29	67	–	C=CC(=O)N1CCN2C(=O)c3c(NC(C)C)nc(-c4c(O)cccc4F)c(Cl)c3OC[C@H]2C1 [Z75, (6aR)-8-acryloyl-4-chloro-1-(isopropylamino)-3-(2-fluoro-6-hydroxyphenyl)-6,6a,7,8,9,10-hexahydro-12H-pyrazino[2,1-c]pyrido[3,4-f][1,4]oxazepin-12-one]	–
–	29	–	–	C=CC(=O)N1CCN2C(=O)c3c(N4C[C@H](O)C[C@@H]4C)nc(-c4c(O)cccc4F)c(Cl)c3OC[C@H]2C1 [Z259, (6aR)-8-acryloyl-4-chloro-3-(2-fluoro-6-hydroxyphenyl)-1-((2S,4R)-4-hydroxy-2-methylpyrrolidin-1-yl)-6,6a,7,8,9,10-hexahydro-12H-pyrazino[2,1-c]pyrido[3,4-f][1,4]oxazepin-12-one]	–
–	30	34	–	C=CC(=O)N1CCN2C(=O)c3c(N4CCNC(C)C4C)nc(-c4c(O)cccc4F)c(Cl)c3OC[C@H]2C1 (stereo partly drawn) [Z308, (6aR)-8-acryloyl-4-chloro-1-(2,3-dimethylpiperazin-1-yl)-3-(2-fluoro-6-hydroxyphenyl)-6,6a,7,8,9, 10-hexahydro-12H-pyrazino[2,1-c]pyrido[3,4-f][1,4]oxazepin-12-one]	–
